US12630565B2, “DNA-dependent protein kinase inhibitor” (DIZAL (JIANGSU) PHARMACEUTICAL CO., LTD., priority 2019, dated 2026)

What was measured:
MDR1, BCRP = assay: MDCKII-MDR1-BCRP efflux assay; assay type: in vitro ADME; settings: dog, pH 7.4, 5 μM compound, HBSS pH 7.4, read-out: MDCK-Mdr1-BCRP efflux ratio
Experimental: The apical-to-basolateral (A-B) and basolateral-to-apical (B-A) transport of compound in HBSS (25 mM HEPES, pH 7.4) was measured across MDCKII-MDR1-BCRP cell monolayers. Incubations were performed at approximately 37° C. for 120 min, with functionality of the test system being confirmed using 5 μM digoxin as a positive control substrate. Transport of 5 μM compound and control compound were determined by quantifying substrate concentration in the incubation medium of donor compartment at the beginning of the incubation period, and both donor and receiver compartments at the end of the incubation period. The data was used to calculate the apparent permeability (Papp). All incubations were performed in triplicate and integrity of the cell monolayers was confirmed using the marker Lucifer yellow.
The permeability coefficient Pexact (cm/s) was calculated using the equation: […]
The Pexact ratio was calculated using the equation: […]
The efflux ratio was calculated using the equation: […]
Where dCr/dt is the cumulative concentration of compound in the receiver chamber as a function of time (μM/s); Vr is the solution volume in the receiver chamber (0.1 mL on the apical side, 0.3 mL on the basolateral side); A is the surface area for the transport, i.e. 0.11 cm2 for the area of the monolayer; CO is the initial concentration in the donor chamber (μM).

[1] = biological target: Full length human DNAPK protein (Homo sapiens, UniProt P78527); assay: DNA-PK enzymatic assay (TR-FRET); assay type: biochemical; settings: 10 μM ATP, 1.6 μM peptide substrate
[2] = Metabolic stability assay (human microsomal Clint); assay type: in vitro ADME; settings: 1 mg/mL microsomes, 1 mM NADPH, 37° C.; for microsomal CLint at 1 μM: human, pooled human liver microsomes, pH 7.4, 1 μM compound; for Human liver microsomal CLint: 1 μM compound
Experimental: 1 μM compound was incubated with 1 mg/mL of microsomes (Pooled HLM with 20 mg/ml protein cone) at 37° C. in 250 μL of buffer (100 mM phosphate buffer, pH-7.4) containing 1 mM NADPH solution. 20 μL of incubation mix was quenched with 5 volumes chilled acetonitrile at different time points 0, 0.5, 5, 10, 15, 20 and 30 min in a fresh 96 well plate. The quench plate was centrifuged at 4000 rpm for 15 min. 40 μL of supernatant was diluted to 200 μL with pure water and analyzed using LC-MS/MS.
In vitro intrinsic clearance of the drugs in the microsome CLint (μl/min/mg) was calculated in the similar manner as the CLint in the hepatocyte.

Rat hepatocyte = assay: Metabolic stability assay (rat hepatocyte Clint); assay type: in vitro ADME; settings: 1 μM compound, cryopreserved hepatocytes 1 million cells per mL
Experimental: Viability of cryopreserved hepatocytes was determined using trypan blue and the cell conc. was adjusted to […] with buffer. 1 μM compound (in Acetonitrile; 0.01% DMSO) was incubated with 250 μL of hepatocytecells (1 million cells per mL) in a 96 deep well plate. Reaction was stopped at different time points (0, 0.5, 5, 15, 30, 45, 60, 80, 100 and 120 min) by addition of 3 volumes of chilled acetonitrile to 20 μL of reaction mixture and centrifuged at 4° C. for 15 min. 40 μL of supernatant was diluted to 200 μL with pure water and analyzed using LC-MS/MS.
In vitro hepatocyte clearance was estimated based on determination of elimination half-life (T1/2) of compounds disappearance from their initial concentrations. Peak area ratios of each compound (test or control) to IS was calculated. Drug elimination rate constant k (min−1), T1/2 (min), and in vitro intrinsic clearance CLint (μL/min/E6) was calculated according to the following equations: […]
Where Chep (cells×μL^−1) is the cell concentration in the incubation system.

Row | SMILES | efflux ratio at 120 min, 5 μM (MDR1, BCRP) | IC50 [1] | microsomal CLint at 1 μM [2] | Rat hepatocyte CLint (μl/min/10^−6 cells) (Rat hepatocyte) | Human liver microsomal CLint [2]
1 | Cc1cc(-c2nn(C)c3cnc(Nc4cn5ncnc5cc4C)nc23)ccn1 [Example 102, 1-methyl-N-(7-methyl-[1,2,4]triazolo[1,5-a]pyridin-6-yl)-3-(2-methylpyridin-4-yl)-1H-pyrazolo[4,3-d]pyrimidin-5-amine] | 14 | 0.9 nM | 15 µL/min/mg | 32.0 μl/min/10^−6 cells | 
2 | Cc1cc2ncnn2cc1Nc1ncc2c(C)nn(C3CCC(OC(F)F)CC3)c2n1 (centres unmarked) [Example 23, 1-(4-(difluoromethoxy)cyclohexyl)-3-methyl-N-(7-methyl-[1,2,4]triazolo[1,5-a]pyridin-6-yl)-1H-pyrazolo[3,4-d]pyrimidin-6-amine] | 0.9 | 0.7 nM | 115 µL/min/mg | 21.2 μl/min/10^−6 cells | 
3 | Cc1cc2ncnn2cc1Nc1ncc2c(C)nn(C3CC4(CCC4)C3)c2n1 [Example 43, 3-methyl-N-(7-methyl-[1,2,4]triazolo[1,5-a]pyridin-6-yl)-1-(spiro[3.3]heptan-2-yl)-1H-pyrazolo[3,4-d]pyrimidin-6-amine] |  | 1.5 nM | 173 µL/min/mg | 16.9 μl/min/10^−6 cells | 
4 | Cc1cc2ncnn2cc1Nc1ncc2c(n1)c(C1CCOCC1C)nn2C (single isomer, unassigned) [Example 56, 1-methyl-N-(7-methyl-[1,2,4]triazolo[1,5-a]pyridin-6-yl)-3-(3-methyltetrahydro-2H-pyran-4-yl)-1H-pyrazolo[4,3-d]pyrimidin-5-amine] |  | 1.1 nM |  |  | 
5 | Cc1cc2ncnn2cc1Nc1ncc2c(C)nn(C3CCCC3)c2n1 [Example 47, 1-cyclopentyl-3-methyl-N-(7-methyl-[1,2,4]triazolo[1,5-a]pyridin-6-yl)-1H-pyrazolo[3,4-d]pyrimidin-6-amine] |  | 1.7 nM | 89.7 µL/min/mg | 43.3 μl/min/10^−6 cells | 
6 | Cc1cc2ncnn2cc1Nc1ncc2c(C)nn([C@H]3CC[C@@H](F)CC3)c2n1 [Example 27, 1-((1s,4s)-4-fluorocyclohexyl)-3-methyl-N-(7-methyl-[1,2,4]triazolo[1,5-a]pyridin-6-yl)-1H-pyrazolo[3,4-d]pyrimidin-6-amine] |  | 1 nM | 41.4 µL/min/mg | 10.8 μl/min/10^−6 cells | 
7 | Cc1cc2ncnn2cc1Nc1ncc2c(n1)c(C1CCOCC1C)nn2C (single isomer, unassigned) [Example 55, 1-methyl-N-(7-methyl-[1,2,4]triazolo[1,5-a]pyridin-6-yl)-3-(3-methyltetrahydro-2H-pyran-4-yl)-1H-pyrazolo[4,3-d]pyrimidin-5-amine] |  | 2.5 nM |  |  | 
8 | Cc1cc2nccn2cc1Nc1ncc2c(C)nn(-c3ccc(C#N)cc3)c2n1 [Example 73, 4-(3-methyl-6-((7-methylimidazo[1,2-a]pyridin-6-yl)amino)-1H-pyrazolo[3,4-d]pyrimidin-1-yl)benzonitrile] |  | 1.3 nM |  |  | 
9 | Cc1cc2ncnn2cc1Nc1ncc2c(C)nn([C@H]3CC[C@H](F)CC3)c2n1 [Example 28, 1-((1r,4r)-4-fluorocyclohexyl)-3-methyl-N-(7-methyl-[1,2,4]triazolo[1,5-a]pyridin-6-yl)-1H-pyrazolo[3,4-d]pyrimidin-6-amine] |  | 1.3 nM | 70 µL/min/mg | 14.1 μl/min/10^−6 cells | 
10 | COC1CC2(C1)CC(n1nc(C)c3cnc(Nc4cn5ncnc5cc4C)nc31)C2 (centres unmarked) [Example 54, 1-(6-methoxyspiro[3.3]heptan-2-yl)-3-methyl-N-(7-methyl-[1,2,4]triazolo[1,5-a]pyridin-6-yl)-1H-pyrazolo[3,4-d]pyrimidin-6-amine] |  | 1.5 nM |  |  | 
11 | Cc1cc2ncnn2cc1Nc1ncc2c(C)nn(CC3CCC3)c2n1 [Example 46, 1-(cyclobutylmethyl)-3-methyl-N-(7-methyl-[1,2,4]triazolo[1,5-a]pyridin-6-yl)-1H-pyrazolo[3,4-d]pyrimidin-6-amine] |  | 3.3 nM | 105 µL/min/mg | 60.9 μl/min/10^−6 cells | 
12 | Cc1cc2nccn2cc1Nc1ncc2c(C)nn(C3CCC(F)(F)CC3)c2n1 [Example 22, 1-(4,4-difluorocyclohexyl)-3-methyl-N-(7-methylimidazo[1,2-a]pyridin-6-yl)-1H-pyrazolo[3,4-d]pyrimidin-6-amine] |  | 1.3 nM | 115 µL/min/mg | 40.9 μl/min/10^−6 cells | 

More lines, now with the values ahead:

Row | efflux ratio at 120 min, 5 μM (MDR1, BCRP) | IC50 [1] | microsomal CLint at 1 μM [2] | Rat hepatocyte CLint (μl/min/10^−6 cells) (Rat hepatocyte) | Human liver microsomal CLint [2] | SMILES
13 |  | 65.3 nM |  | 37.0 μl/min/10^−6 cells | 201.9 µL/min/mg | COCCC(C)n1nc(C)c2cnc(Nc3cn4ncnc4cc3C)nc21 (single isomer, unassigned) [Example 68, 1-(4-methoxybutan-2-yl)-3-methyl-N-(7-methyl-[1,2,4]triazolo[1,5-a]pyridin-6-yl)-1H-pyrazolo[3,4-d]pyrimidin-6-amine]
14 |  | 3.6 nM | 50.8 µL/min/mg | 38.6 μl/min/10^−6 cells |  | Cc1cc2ncnn2cc1Nc1ncc2c(C)nn(CCOC(F)(F)F)c2n1 [Example 64, 3-methyl-N-(7-methyl-[1,2,4]triazolo[1,5-a]pyridin-6-yl)-1-(2-(trifluoromethoxy)ethyl)-1H-pyrazolo[3,4-d]pyrimidin-6-amine]
15 |  | 4.3 nM |  |  |  | COC(C)Cn1nc(C)c2cnc(Nc3cn4ncnc4cc3C)nc21 (single isomer, unassigned) [Example 70, 1-(2-methoxypropyl)-3-methyl-N-(7-methyl-[1,2,4]triazolo[1,5-a]pyridin-6-yl)-1H-pyrazolo[3,4-d]pyrimidin-6-amine]
16 |  | 6.4 nM |  |  |  | COC(C)Cn1nc(C)c2cnc(Nc3cn4ncnc4cc3C)nc21 (single isomer, unassigned) [Example 71, 1-(2-methoxypropyl)-3-methyl-N-(7-methyl-[1,2,4]triazolo[1,5-a]pyridin-6-yl)-1H-pyrazolo[3,4-d]pyrimidin-6-amine]
17 |  | 5.1 nM |  | 11.7 μl/min/10^−6 cells | 42.4 µL/min/mg | CCC(C)n1nc(C)c2cnc(Nc3cn4ncnc4cc3C)nc21 (single isomer, unassigned) [Example 62, 1-(sec-butyl)-3-methyl-N-(7-methyl-[1,2,4]triazolo[1,5-a]pyridin-6-yl)-1H-pyrazolo[3,4-d]pyrimidin-6-amine]
18 |  | 27 nM | 104 µL/min/mg | 8.3 μl/min/10^−6 cells |  | COCCC(C)n1nc(C)c2cnc(Nc3cn4ncnc4cc3C)nc21 (single isomer, unassigned) [Example 67, 1-(4-methoxybutan-2-yl)-3-methyl-N-(7-methyl-[1,2,4]triazolo[1,5-a]pyridin-6-yl)-1H-pyrazolo[3,4-d]pyrimidin-6-amine]
19 |  | 3.5 nM | 34.5 µL/min/mg | 5.2 μl/min/10^−6 cells |  | CCC(C)n1nc(C)c2cnc(Nc3cn4ncnc4cc3C)nc21 (single isomer, unassigned) [Example 61, 1-(sec-butyl)-3-methyl-N-(7-methyl-[1,2,4]triazolo[1,5-a]pyridin-6-yl)-1H-pyrazolo[3,4-d]pyrimidin-6-amine]
20 |  | 4.3 nM | 70 µL/min/mg | 64.0 μl/min/10^−6 cells |  | Cc1cc2ncnn2cc1Nc1ncc2c(C)nn(C3CCC3)c2n1 [Example 45, 1-cyclobutyl-3-methyl-N-(7-methyl-[1,2,4]triazolo[1,5-a]pyridin-6-yl)-1H-pyrazolo[3,4-d]pyrimidin-6-amine]
